Data reported in patent publication US20120184006A1, “Reductase Enzymes” (UTAH STATE UNIVERSITY, priority 2011, published 2012).

Experiments:
[1] = target: T1, fatty acyl-CoA reductase (FACoAR) from M. aquaeolei VT8 (Marinobacter nauticus (Marinobacter aquaeolei), UniProt A1U3L3); assay: Palmitoyl CoA inhibition of fatty aldehyde (cis-11-hexadecenal) reduction; type: biochemical; conditions: competitive inhibition of cis-11-hexadecenal reduction; 0, 1, 2, 4 μM inhibitor; fit to equation 2; read-out: apparent Ki
T1 sequence (A1U3L3 1-661): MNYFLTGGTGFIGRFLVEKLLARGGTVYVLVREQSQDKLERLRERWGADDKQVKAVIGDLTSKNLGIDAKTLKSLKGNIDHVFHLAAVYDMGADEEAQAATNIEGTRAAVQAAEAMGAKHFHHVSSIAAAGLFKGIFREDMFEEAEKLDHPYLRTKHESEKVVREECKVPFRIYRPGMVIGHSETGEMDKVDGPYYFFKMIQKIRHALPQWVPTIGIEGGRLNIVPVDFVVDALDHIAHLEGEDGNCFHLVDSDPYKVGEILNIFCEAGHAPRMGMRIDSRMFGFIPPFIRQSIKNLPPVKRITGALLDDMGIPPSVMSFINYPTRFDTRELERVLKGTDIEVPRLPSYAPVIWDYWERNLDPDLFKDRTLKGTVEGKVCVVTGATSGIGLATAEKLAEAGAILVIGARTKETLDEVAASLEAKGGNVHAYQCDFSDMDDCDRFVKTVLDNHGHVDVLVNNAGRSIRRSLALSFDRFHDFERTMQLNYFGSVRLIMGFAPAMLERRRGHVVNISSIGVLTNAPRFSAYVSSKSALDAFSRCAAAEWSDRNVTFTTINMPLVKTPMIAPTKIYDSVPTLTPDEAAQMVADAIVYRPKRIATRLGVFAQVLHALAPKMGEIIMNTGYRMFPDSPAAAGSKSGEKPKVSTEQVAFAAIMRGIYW
Protocol: The (◯) denote assays performed with 0 μM palmitoyl CoA, ([…]) denote assays performed with 1 palmitoyl CoA, (□) denote assays performed with 2 μM palmitoyl CoA, and (Δ) denote assays performed with 4 μM palmitoyl CoA. Specific activities are plotted in units of nmol NADP^+ min^−1 mg protein^−1. All assays were conducted in triplicate and are shown with error bars indicating SEM fit to equation 1 in the materials and methods section. The apparent Ki was determined by fitting all four data sets to equation 2 in the materials and methods.
All assays were conducted in a total volume of 1 mL. A buffer containing 50 mM NaCl, 20 mM Tris-HCl pH 7.0, and 0.5 mg/mL BSA was prepared along with a 1 mM stock of aldehyde dissolved in dimethyl sulfoxide (DMSO) or a 0.1 mM stock of the acyl-CoA, and 2.0 trig/mL NADPH. […] Each sample was continuously monitored for the decrease of NADPH at 340 nm on a Varian 50 Bio UV-visible spectrophotometer (Walnut Creek, Calif.). Initial rates were calculated in Excel using the linear initial rates of reaction obtained from the spectrophotometric assays by obtaining the slope from the best. […]
Buffers and solutions were prepared as described above for NADPH assays. […] Reduction of acyl-CoA substrate was monitored by following the increase of the 2-nitro-5-thiobenzoate (NTB^2−) dianion concentration at 412 nm. […]

[2] = target: T1, fatty acyl-CoA reductase (FACoAR) from M. aquaeolei VT8; assay: Continuous spectrophotometric DTNB assay (release of free CoA); type: biochemical; conditions: for Rate of Reaction (nmol NTB^2− min^−1 mg protein^−1): 6 μM of the respective CoA as substrate; for % Specific Activity of Palmitoyl-CoA: percent of the specific activity of palmitoyl-CoA, 6 μM substrate
Protocol: Buffers and solutions were prepared as described above for NADPH assays. Each assay was conducted by adding 75 μL of the 2 mg/mL NADPH stock solution in buffer, 58 μg of protein, and 10 μL of a 10 mg/mL solution of DTNB in DMSO, varying concentrations of acyl-CoA and buffer to bring the volume to 1 mL. Reduction of acyl-CoA substrate was monitored by following the increase of the 2-nitro-5-thiobenzoate (NTB^2−) dianion concentration at 412 nm. […] These initial rates were used to calculate the apparent K, and Vmax values using the Igor Pro (Wavemetrics, Lake Oswego, Oreg.) software package fitting the initial rates to the Hill equation (Equation 1) where v is the initial velocity, Vmax is the maximum calculated velocity, [S]^n is the concentration of substrate and n is the Hill coefficient, K0.5^n is the approximation of Km or the approximate substrate concentration at which half of Vmax is obtained at a specific value of the Hill coefficient n. In the case of enzyme inhibition, a modified version of the Hill equation allowing for cooperative inhibition (Equation 2) where all of the coefficients are defined as for the Hill equation and the additional [i]^n is the concentration of inhibitor and n is the Hill coefficient. The Ki^n is the approximate concentration of inhibitor it takes to double the K0.5 at a specific value of the Hill coefficient n.

[3] = target: T1, fatty acyl-CoA reductase (FACoAR) from M. aquaeolei VT8; assay: Continuous spectrophotometric NADPH assay (decrease of NADPH at 340 nm); type: biochemical; conditions: FIG. 5, NADPH assay, acyl-CoA substrate
Protocol: All assays were conducted in a total volume of 1 mL. A buffer containing 50 mM NaCl, 20 mM Tris-HCl pH 7.0, and 0.5 mg/mL BSA was prepared along with a 1 mM stock of aldehyde dissolved in dimethyl sulfoxide (DMSO) or a 0.1 mM stock of the acyl-CoA, and […] NADPH. All components including protein were degassed in sealed vials and placed under an argon atmosphere. NADPH was degassed as the solid prior to the addition of degassed buffer. Each assay was conducted by adding 75 μL of the NADPH stock, 58 μg protein for acyl-CoA assays or 15 μg protein for aldehyde assays, varying concentrations of aldehyde or acyl-CoA and buffer to bring the final volume to 1 mL. Each sample was continuously monitored for the decrease of NADPH at 340 nm on a Varian 50 Bio UV-visible spectrophotometer (Walnut Creek, Calif.). Initial rates were calculated in Excel using the linear initial rates of reaction obtained from the spectrophotometric assays by obtaining the slope from the best. In line and calculating nmol of NADPH oxidized per second. (Microsoft, Redmond, Wash.). These initial rates were used to calculate Km and Vmax values using the Igor Pro software package (Wavemetrics, Lake Oswego, Oreg.) fitting the initial rates to the Hill equation (31). NADPH specific activity assays were conducted identically as described above using a fixed 60 μM concentration of the various aldehyde substrates or 6 μM of the various acyl-CoA substrates.

[4] = tested on: FACoAR from M. aquaeolei VT8; assay: Initial activity assay, products identified by TLC and GC; type: biochemical, Marinobacter aquaeolei VT8; conditions: 200 μM substrate, NADPH
Protocol: Initial activity assays were conducted using thin layer chromatography (TLC) and a gas chromatography (GC) assay similar to that described previously (29). To test activity, 0.3 mg of protein was added to a reaction vessel along with 200 μM palmitoleyl-CoA and 800 μM NADPH, NADH, NADP^+, NAD^+ in reaction buffer containing 20 mM Tris-HCl pH 7.0 and 50 mM NaCl. Reactions were allowed to proceed for 1 hr before quenching by the addition of 2 mL of hexane. The hexane water mixture was vortexed vigorously for 30 seconds before centrifuging to separate phases. The hexane phase was removed to a clean container and the solvent was removed under a stream of argon. […] The TLC plate was developed in a 2:15:90 volumetric ratio of glacial acetic acid:ethyl ether:hexane. After development, visualization was performed in a sealed jar with iodine crystals for 10 min. The TLC results were verified by GC analysis of the sample prepared in the same way and compared to retention times of known standards.

| SMILES | Ki [1] | Vmax when CoA release was monitored [2] | maximal specific activity (CoA release) [2] | Rate of Reaction (nmol NTB^2− min^−1 mg protein^−1) [2] | n (Hill coefficient) ([2]; FIG. 5, DTNB assay) | Vmax ([2]; FIG. 5, DTNB assay, release of free CoA, Hill fit, substrate) | % Specific Activity of Palmitoyl-CoA [2] | n (Hill coefficient) [3] | Vmax ([3]; Hill fit) | detectable product of reduction [4] |
| --- | --- | --- | --- | --- | --- | --- | --- | --- | --- | --- |
| CCCCCCCCCCCCCCCC(=O)SCCNC(=O)CCNC(=O)[C@H](O)C(C)(C)COP(=O)(O)OP(=O)(O)OC[C@H]1O[C@@H](n2cnc3c(N)ncnc32)[C@H](O)[C@@H]1OP(=O)(O)O [Palmitoyl-CoA] | 1900 ± 260 nM | ~180 nmol/min/mg | 115 nmol of NTB/min/mg protein | 54.7 ± 4.7 nmol NTB^2− min^−1 mg protein^−1 | 2.8±0.7 | 115±7 nmol NTB^−2 min^−1 mg of protein^−1 | 100% | 2.6±0.3 | 197±8 nmol NADP^+ min^−1 mg of protein^−1 | – |
| CCCCCC/C=C\CCCCCCCC(=O)SCCNC(=O)CCNC(=O)[C@H](O)C(C)(C)COP(=O)(O)OP(=O)(O)OC[C@H]1O[C@@H](n2cnc3c(N)ncnc32)[C@H](O)[C@@H]1OP(=O)(O)O [Palmitoleyl-CoA] | – | – | – | 53.7 ± 1.1 nmol NTB^2− min^−1 mg protein^−1 | – | – | 93% | – | – | palmitoleyl alcohol |
